Test results from patent publication US8470851B2, “Substituted acetylenic imidazo[1,2-A]pyridine compounds as kinase inhibitors” (ARIAD Pharmaceuticals, Inc., priority 2005, dated 2013).

molecular target: T1, BaF3 cells transfected with the Bcr-Abl T315I mutant (Homo sapiens, UniProt P00519, T315I, cells depend on it); experiment: Ba/F3 cell proliferation assay, Bcr-Abl T315I (CellTiter 96 AQueous One); format: cell-based, murine; settings: Ba/F3 cells expressing Bcr-Abl T315I, 3 days incubation; read-out: T315l cell proliferation;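 note: murine pro-B Ba/F3 line, tetrazolium turned into formazan and read by absorbance, compound dilution series, values as percent of DMSO-treated control, IC50 from fitted curves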
T1 construct: fused on or other part: P11274 (Breakpoint cluster region protein)

GI50 | Structure (SMILES)
< 1000 nM | CCN1CCN(Cc2ccc(NC(=O)c3ccc(C)c(C#Cc4cnc5cnccn45)c3)cc2C(F)(F)F)CC1
< 1000 nM | Cc1ccc(C(=O)Nc2ccc(CN3CCN(C(C)C)CC3)c(C(F)(F)F)c2)cc1C#Cc1cnc2cnccn12
< 1000 nM | CNC(=O)Nc1cccn2c(C#Cc3cc(C(=O)Nc4cc(C(F)(F)F)ccn4)ccc3C)cnc12
< 1000 nM | Cc1ccc(C(=O)Nc2cc(-n3ccnc3)cc(C(F)(F)F)c2)cc1C#Cc1cnc2c(NC(N)=O)cccn12
< 1000 nM | CN1CCN(Cc2ccc(NC(=O)c3ccc(Cl)c(C#Cc4cnc5ccccn45)c3)cc2C(F)(F)F)CC1
< 1000 nM | Cc1ccc(C(=O)Nc2cc(C(F)(F)F)ccn2)cc1C#Cc1cnc2c(NC(=O)C3CC3)cccn12
< 1000 nM | COC(=O)Nc1cccn2c(C#Cc3cc(C(=O)Nc4cc(C(F)(F)F)ccn4)ccc3C)cnc12
< 1000 nM | Cc1ccc(C(=O)Nc2ccc(OC3CCN(C)CC3)c(C(F)(F)F)c2)cc1C#Cc1cnc2cnccn12
< 1000 nM | CN1CCN(Cc2ccc(NC(=O)c3cccc(C#Cc4cnc5ccccn45)c3)cc2C(F)(F)F)CC1
< 1000 nM | Cc1ccc(C(=O)Nc2cc(Cn3ccnc3)cc(C(F)(F)F)c2)cc1C#Cc1cnc2ccccn12
< 1000 nM | Cc1ccc(C(=O)Nc2cc(-n3ccnc3)cc(C(F)(F)F)c2)cc1C#Cc1cnn2cccnc12
< 1000 nM | CC(=O)Nc1cccn2c(C#Cc3cc(C(=O)Nc4cc(C(F)(F)F)ccn4)ccc3C)cnc12
< 1000 nM | CN1CCN(Cc2ccc(NC(=O)c3cccc(C#Cc4cnc5cnccn45)c3)cc2C(F)(F)F)CC1
< 1000 nM | Cc1ccc(C(=O)Nc2cc(-n3cnc(C#N)c3)cc(C(F)(F)F)c2)cc1C#Cc1cnc2cnccn12
< 1000 nM | Cc1ccc(C(=O)Nc2cc(C(F)(F)F)ccn2)cc1C#Cc1cnc2c(Nc3ccc(S(C)(=O)=O)cc3)cccn12
< 1000 nM | CC(C)N1CCN(Cc2ccc(NC(=O)c3cncc(C#Cc4cnc5cnccn45)c3)cc2C(F)(F)F)CC1
< 1000 nM | Cc1ccc(C(=O)Nc2ccc(CN3CCC(N(C)C)CC3)c(C(F)(F)F)c2)cc1C#Cc1cnc2cnccn12
< 1000 nM | CC(C)N1CCN(Cc2ccc(NC(=O)c3cccc(C#Cc4cnc5cnccn45)c3)cc2C(F)(F)F)CC1
< 1000 nM | Cc1cn(-c2cc(NC(=O)c3ccc(C)c(C#Cc4cnc5ccccn45)c3)cc(C(F)(F)F)c2)cn1
< 1000 nM | Cc1ccc(C(=O)Nc2cc(-n3cnc(C#N)c3)cc(C(F)(F)F)c2)cc1C#Cc1cnc2ccccn12
< 1000 nM | Cc1ccc(C(=O)Nc2ccc(CN3CCC(N(C)C)CC3)c(C(F)(F)F)c2)cc1C#Cc1cnc2ccccn12
< 1000 nM | CN1CCN(Cc2ccc(C(=O)Nc3cccc(C#Cc4cnc5cnccn45)c3)cc2C(F)(F)F)CC1
< 1000 nM | Cc1ccc(C(=O)Nc2cc(C(F)(F)F)ccn2)cc1C#Cc1cnc2c(N)cccn12
< 1000 nM | CC(=O)Nc1cccn2c(C#Cc3cc(C(=O)Nc4cccc(C(F)(F)F)c4)ccc3C)cnc12
< 1000 nM | CC(=O)Nc1ncnc2c(C#Cc3cc(C(=O)Nc4cc(C(F)(F)F)ccn4)ccc3C)cnn12
< 1000 nM | Cc1ccc(C(=O)Nc2ccc(CN3CC[C@@H](N(C)C)C3)c(C(F)(F)F)c2)cc1C#Cc1cnc2cccnn12 (racemic)
< 1000 nM | Cc1ccc(C(=O)Nc2ccc(CN3CC[C@@H](O)C3)c(C(F)(F)F)c2)cc1C#Cc1cnc2ccccn12 (racemic)

More lines, now with the values behind:

Structure (SMILES) | GI50
Cc1ccc(C(=O)Nc2ccc(CN3CCNCC3)c(C(F)(F)F)c2)cc1C#Cc1cnc2cnccn12 | < 1000 nM
Cc1ccc(C(=O)Nc2cc(C(F)(F)F)ccn2)cc1C#Cc1cnc2c(NC(N)=O)cccn12 | < 1000 nM
CN1CCN(Cc2ccc(NC(=O)c3ccc(F)c(C#Cc4cnc5cnccn45)c3)cc2C(F)(F)F)CC1 | < 1000 nM
Cc1ccc(C(=O)Nc2ccc(CN3CCN(C)CC3)c(C(F)(F)F)c2)cc1C#Cc1cnn2c(N)ncnc12 | < 1000 nM
Cc1ccc(C(=O)Nc2cc(C(C)(C)C)on2)cc1C#Cc1cnc2c(NC(N)=O)cccn12 | < 1000 nM
Cc1ccc(C(=O)Nc2cc(C(F)(F)F)ccn2)cc1C#Cc1cnc2c(NC(=O)N(C)C)cccn12 | < 1000 nM
CN1CCN(Cc2ccc(NC(=O)c3ccc(F)c(C#Cc4cnc5ccccn45)c3)cc2C(F)(F)F)CC1 | < 1000 nM
Cc1ccc(C(=O)Nc2cc(-n3ccnc3)cc(C(F)(F)F)c2)cc1C#Cc1cnc2c(NC(=O)OC(C)(C)C)cccn12 | < 1000 nM
Cc1ccc(C(=O)Nc2cc(Cn3ccnc3)cc(C(F)(F)F)c2)cc1C#Cc1cnc2cnccn12 | < 1000 nM
Cc1ccc(C(=O)Nc2cc(C(F)(F)F)ccn2)cc1C#Cc1cnc2c(Nc3ccc(S(N)(=O)=O)cc3)cccn12 | < 1000 nM
Cc1ccc(C(=O)Nc2cc(-n3ccnc3)cc(C(F)(F)F)c2)cc1C#Cc1cnc2c(Nc3cccc(C(N)=O)c3)cccn12 | < 1000 nM
Cc1ccc(C(=O)Nc2cc(-n3cnc(CCN4CCCC4)c3)cc(C(F)(F)F)c2)cc1C#Cc1cnc2ccccn12 | < 1000 nM
Cc1ccc(C(=O)Nc2cc(-n3ccnc3CN(C)C)cc(C(F)(F)F)c2)cc1C#Cc1cnc2cnccn12 | < 1000 nM
Cc1ccc(C(=O)Nc2cc(-n3ccnc3)cc(C(F)(F)F)c2)cc1C#Cc1cnc2cnccn12 | < 1000 nM
Cc1ccc(C(=O)Nc2cc(CN3CCCC3)cc(C(F)(F)F)c2)cc1C#Cc1cnc2cnccn12 | < 1000 nM
Cc1ccc(C(=O)Nc2ccc(CN3CCN(C)CC3)c(C(F)(F)F)c2)cc1C#Cc1cnn2cccnc12 | < 1000 nM
CN1CCN(Cc2ccc(NC(=O)c3ccc(C#Cc4cnc5ccccn45)o3)cc2C(F)(F)F)CC1 | < 1000 nM

Structure (SMILES) | GI50
Cc1ccc(C(=O)Nc2ccc(CN3CCNC(=O)C3)c(C(F)(F)F)c2)cc1C#Cc1cnc2ccccn12 | < 1000 nM
Cc1ccc(C(=O)Nc2cc(-n3cnc(CN4CCCC4)c3)cc(C(F)(F)F)c2)cc1C#Cc1cnc2cnccn12 | < 1000 nM
Cc1ccc(C(=O)Nc2cc(C(C)(C)C)on2)cc1C#Cn1cnc2c(NC3CC3)ncnc21 | < 1000 nM
Cc1ccc(C(=O)Nc2cc(C(F)(F)F)ccn2)cc1C#Cc1cnn2cccnc12 | < 1000 nM
Cc1ccc(C(=O)Nc2ccc(CN3CCOCC3)c(C(F)(F)F)c2)cc1C#Cc1cnc2cnccn12 | < 1000 nM
Cc1ccc(C(=O)Nc2cc(CN3CCCC3)cc(C(F)(F)F)c2)cc1C#Cc1cnc2ccccn12 | < 1000 nM
Cc1ccc(C(=O)Nc2cc(CN3CCOCC3)cc(C(F)(F)F)c2)cc1C#Cc1cnc2cnccn12 | < 1000 nM
Cc1ccc(C(=O)Nc2ccc(CN3CCCC3)c(C(F)(F)F)c2)cc1C#Cc1cnc2cnccn12 | < 1000 nM
Cc1ccc(C(=O)Nc2ccc(Cn3ccnc3)c(C(F)(F)F)c2)cc1C#Cc1cnc2cnccn12 | < 1000 nM
Cc1ccc(C(=O)Nc2cc(C(F)(F)F)ccn2)cc1C#Cc1cnn2c(N)ncnc12 | < 1000 nM
Cc1ccc(C(=O)Nc2ccc(Cn3ccnc3)c(C(F)(F)F)c2)cc1C#Cc1cnc2ccccn12 | < 1000 nM
Cc1ccc(C(=O)Nc2cc(CN3CCOCC3)cc(C(F)(F)F)c2)cc1C#Cc1cnc2ccccn12 | < 1000 nM
Cc1ccc(C(=O)Nc2cc(-n3cnc(CCN4CCCC4)c3)cc(C(F)(F)F)c2)cc1C#Cc1cnc2cnccn12 | < 1000 nM
Cc1ccc(C(=O)Nc2cc(C(F)(F)F)ccn2)cc1C#Cc1cnc2c(NC(=O)C3CCC3)cccn12 | < 1000 nM
CC(C)(C)c1cc(NC(=O)c2cccc(C#Cc3cnc4ccccn34)c2)no1 | < 1000 nM
Cc1ccc(C(=O)Nc2ccc(CN3CC[C@@H](N(C)C)C3)c(C(F)(F)F)c2)cc1C#Cc1cnc2cnccn12 (stereo in doubt) | < 1000 nM
Cc1ccc(C(=O)Nc2ccc(CN3CC[C@H](N(C)C)C3)c(C(F)(F)F)c2)cc1C#Cc1cnc2cnccn12 (stereo in doubt) | < 1000 nM
